Laboratory results reported in patent US9790252B2, “2-fluorinated riboses and arabinoses and methods of use and synthesis” (CORNELL UNIVERSITY, priority 2009, dated 2017).
pEC50, pKi: −log10 of the molar value.

Tests used:
Neuro2A cells = test: Toxicity to Neuro2A cells (MTT); type: cell-based; settings: for 100 μM absorbance / 100 μM relative viability / 500 μM absorbance / 500 μM relative viability: 12 hours; for 100 μM absorbance / 500 μM absorbance: 570 nm
Method: 6. Neuro2A cells were seeded in 96-well plate at a density of 25,000 cells/well the day before the experiment starts;
7. After the cells reach 50˜60% confluency, media was taken out, and 100 μL of fresh media was added to each well;
8. […]
9. After 12 hours' incubation at 37° C., the media was taken out, 100 μL of fresh media was added to each well along with 20 μL of 5 mg/mL of MTT solution (in PBS);
10. After 1.5 hours' incubation at 37° C., media was taken out and 100 μL of DMSO was added to each well, the plate was mixed on shaker for 5 mins;
Absorbance was measured at 570 nm.
Assay for Determining Toxicity to HEK293 and Neuro2A Cells • 1. HEK293 and Neuro2A cells were seeded in 96-well plate at a density of 25,000 cells/well the day before the experiment starts; • 2. After the cells reach 50˜60% confluency, media was taken out, and 100 μL of fresh media was added to each well; • 3. […] After 12 hours' incubation at 37° C., the media was taken out, 100 μL of fresh media was added to each well along with 20 μL of 5 mg/mL of MTT solution (in PBS); • 5. After 2 hours' incubation at 37° C., media was taken out and 100 μL of DMSO was added to each well, the plate was mixed on shaker for 5 mins; • 6. Absorbance was measured at 570 nm.

SirT3 = molecular target: T1, SirT3 (Homo sapiens, UniProt Q9NTG7); test: SirT3 activity assay (HPLC of 2′- and 3′-AADPR); type: biochemical; settings: 800 μM NAD+, 500 μM H3 peptide, pH 7.5, 2 hours at 37° C.
T1 sequence (Q9NTG7 1-399): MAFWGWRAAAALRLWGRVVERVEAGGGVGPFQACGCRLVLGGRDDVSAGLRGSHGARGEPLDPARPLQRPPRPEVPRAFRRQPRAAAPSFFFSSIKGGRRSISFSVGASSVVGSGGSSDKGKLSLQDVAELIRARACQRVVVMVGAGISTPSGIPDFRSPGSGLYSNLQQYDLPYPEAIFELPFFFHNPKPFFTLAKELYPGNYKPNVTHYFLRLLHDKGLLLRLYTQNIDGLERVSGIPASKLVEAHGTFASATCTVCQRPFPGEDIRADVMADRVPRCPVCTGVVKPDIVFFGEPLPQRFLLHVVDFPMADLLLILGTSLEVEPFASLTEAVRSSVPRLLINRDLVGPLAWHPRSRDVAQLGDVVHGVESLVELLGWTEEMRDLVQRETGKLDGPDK
Method: Reactions containing 800 μM NAD^+, 500 μM H3 peptide, and 100 mM phosphate buffer at pH 7.5, with varying concentrations of 2′-deoxy-2′-fluoro-nucleosides or nucleotides were initiated by addition of SirT3 enzyme to a concentration of 13.9 μM. Reactions were incubated for 2 hours at 37° C. and quenched by addition of trifluoroacetic acid to pH 2. After centrifugation to remove precipitates, reactions were injected on HPLC for activity analysis. Production of 2′- and 3′-AADPR were analyzed at 260 nm.
SirT3 Activity Assay: Reactions containing 800 μM NAD^+, 500 μM H3 peptide, and 100 mM phosphate buffer at pH 7.5, with varying concentrations of 2′-deoxy-2′-chloro-nucleosides were initiated by addition of SirT3 enzyme to a concentration of 13.9 μM. Reactions were incubated for 2 hours at 37° C. and quenched by addition of trifluoroacetic acid to pH 2. After centrifugation to remove precipitates, reactions were injected on HPLC for activity analysis. Production of 2′- and 3′-AADPR were analyzed at 260 nm.

CD38 = molecular target: T2, CD38 (Homo sapiens, UniProt P28907); test: CD38 activity assay (NGD+ turnover, 295 nm absorbance); type: biochemical
T2 sequence (P28907 1-300): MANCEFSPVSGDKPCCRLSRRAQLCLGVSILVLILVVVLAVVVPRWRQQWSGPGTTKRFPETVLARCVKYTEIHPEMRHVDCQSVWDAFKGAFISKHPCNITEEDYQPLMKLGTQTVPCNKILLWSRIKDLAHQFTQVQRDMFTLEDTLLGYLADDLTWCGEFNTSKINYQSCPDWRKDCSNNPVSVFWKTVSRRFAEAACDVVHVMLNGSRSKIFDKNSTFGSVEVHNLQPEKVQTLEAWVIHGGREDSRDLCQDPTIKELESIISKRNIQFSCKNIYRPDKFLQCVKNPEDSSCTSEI
Method: CD38 (500 nM) in 100 mM phosphate buffer at pH 7.5 was incubated with various concentrations of 2′-deoxy-2′-fluoro-nucleosides and nucleotides for 30 mins at room temperature. 35 μL of the enzyme inhibitor solution was added to a cuvette containing 1 mL of 100 mM phosphate buffer at pH 7.5, containing 200 μM NGD^+. Reaction progress upon initiation by enzyme addition was monitored by 295 nm absorbance.
CD38 Activity Assay: CD38 (500 nM) in 100 mM phosphate buffer at pH 7.5 was incubated with various concentrations of 2′-deoxy-2′-chloro-nucleosides were for 30 mins at room temperature. 35 μL of the enzyme inhibitor solution was added to a cuvette containing 1 mL of 100 mM phosphate buffer at pH 7.5, containing 200 μM NGD^+. Reaction progress upon initiation by enzyme addition was monitored by 295 nm absorbance.

HEK293 cells = test: Ribo-F-NR dose response in HEK293 cells (MTT); type: cell-based; settings: 12 hours; for absorbance: 570 nm
Method: 1. HEK293 cells were seeded in 96-well plate at a density of 10,000 cells/well the day before the experiment starts;
2. After the cells reach 50˜60% confluency, media was taken out, and 100 μL of fresh media was added to each well;
3. Ribo-F-NR (stock concentration=5.53 mM) were plated at 11, 22, 27, 44, 55, 83 and 111 μM (in triplicates) concentrations;
4. After 12 hours' incubation at 37° C., the media was taken out, 100 μL of fresh media was added to each well along with 20 μL of 5 mg/mL of MTT solution (in PBS);
5. After 1.5 hours' incubation at 37° C., media was taken out and 100 μL of DMSO was added to each well, the plate was mixed on shaker for 5 mins;
6. Absorbance was measured at 570 nm.

[1] = Mus musculus, N2a, 2′-deoxy-2′-fluoro-nucleosides and nucleotides
[2] = MTT 2 hours, chloro-nucleosides
[3] = control = 1, chloro-nucleosides

Structure (SMILES) | 100 μM absorbance (Neuro2A cells; MTT 1.5 hours) | 100 μM relative viability (Neuro2A cells; control = 1) | 500 μM absorbance (Neuro2A cells; MTT 1.5 hours) | 500 μM relative viability (Neuro2A cells; control = 1) | pEC50 (Neuro2A cells; [1]) | pKi (SirT3) | other results
NC(=O)c1ccc[n+]([C@@H]2O[C@H](CO)C(O)C2F)c1 (stereo partly shown) [ara-F-NR, 1-(2′-deoxy-2′-fluoro-arabinofuranosyl)-nicotinamide] | 2.0227 | 0.831 | 2.0666 | 0.849 | 2.42 | 3.21 | 
NC(=O)c1ccc[n+]([C@@H]2O[C@H](COP(=O)([O-])O)C(O)C2(F)F)c1 (stereo partly shown) [gem-diF-NMN, 2′-deoxy-2′,2′-difluoro-ribo-nicotinamide mononucleotide] | 1.0774 | 0.443 | 0.0217 | 0.009 | 4.19 | 3.89 | CD38 inhibition (in words) (CD38; at 300 μM): inhibited at 300 μM
NC(=O)c1ccc[n+]([C@@H]2O[C@H](CO)[C@@H](O)C2(F)F)c1 [gem-diF-NR, 1-(2′-deoxy-2′,2′-difluoro-ribofuranosyl)-nicotinamide] | 0.8234 | 0.338 | 0.5374 | 0.221 | 4.21 |  | SirT3 Ki (SirT3): Ki = high mM
NC(=O)c1ccc[n+]([C@@H]2O[C@H](COP(=O)([O-])O)C(O)C2F)c1 (stereo partly shown) [ribo-F-NMN, 2′-deoxy-2′-fluoro-ribo-nicotinamide mononucleotide] | 2.2023 | 0.905 | 1.7872 | 0.735 |  | 3.97 | pEC50 (Neuro2A cells; 2′-deoxy-2′-fluoro-nucleosides and nucleotides): 2.85
NC(=O)c1ccc[n+]([C@@H]2O[C@H](CO)C(O)[C@@H]2F)c1 (stereo partly drawn) [ribo-F-NR, 1-(2-deoxy-2-fluoro-D-ribofuranosyl)-nicotinamide] | 1.8769 | 0.771 | 0.8391 | 0.345 | 3.55 | 3.60 | relative viability (HEK293 cells; HEK293, 11 μM): 0.8067; absorbance (HEK293 cells; HEK293, 11 μM): 0.1041; relative viability (HEK293 cells; HEK293, 22 μM): 0.652; absorbance (HEK293 cells; HEK293, 22 μM): 0.08411; relative viability (HEK293 cells; HEK293, 27 μM): 0.4806; absorbance (HEK293 cells; HEK293, 27 μM): 0.062; relative viability (HEK293 cells; HEK293, 44 μM): 0.2539; absorbance (HEK293 cells; HEK293, 44 μM): 0.03275; relative viability (HEK293 cells; HEK293, 55.3 μM): 0.1163; absorbance (HEK293 cells; HEK293, 55.3 μM): 0.015; relative viability (HEK293 cells; HEK293, 83 μM): 0.04651; absorbance (HEK293 cells; HEK293, 83 μM): 0.006; relative viability (HEK293 cells; HEK293, 111 μM): 0.008358; absorbance (HEK293 cells; HEK293, 111 μM): 0.001078
NC(=O)c1ccc[n+]([C@@H]2O[C@H](CO)C(O)C2Cl)c1 (stereo partly drawn) [β-ara-Cl-NR, 1-(2′-deoxy-2′-chloro-arabinofuranosyl)-nicotinamide] |  |  |  |  |  | 3.26 | 100 μM absorbance (Neuro2A cells; [2]): 0; 100 μM relative viability (Neuro2A cells; [3]): 0; 500 μM absorbance (Neuro2A cells; [2]): 0; 500 μM relative viability (Neuro2A cells; [3]): 0; pEC50 (Neuro2A cells; Mus musculus, N2a, 2′-deoxy-2′-chloro-nucleosides): 5.05
NC(=O)c1ccc[n+]([C@@H]2O[C@H](CO)C(O)C2(Cl)Cl)c1 (stereo partly drawn) [β-gem-diCl-NR, 1-(2′-deoxy-2′,2′-dichloro-ribofuranosyl)-nicotinamide] |  |  |  |  |  | 3.91 | 100 μM absorbance (Neuro2A cells; [2]): 2.615; 100 μM relative viability (Neuro2A cells; [3]): 1.106; 500 μM absorbance (Neuro2A cells; [2]): 2.63; 500 μM relative viability (Neuro2A cells; [3]): 1.112; toxicity to Neuro2A (in words) (Neuro2A cells; at 500 μM): not toxic at 500 μM; inhibition at 500 µM (CD38; at 500 μM, read-out: CD38 % inhibited): 50%
